Measured values taken from patent publication US11891373B2, “Crystalline forms of 1-((2R,4R)-2-(1H-benzo[d]imidazol-2-yl)-1-methylpiperidin-4-yl)-3-(4-cyanophenyl)urea maleate” (priority 2015, dated 2024).
Counter-ions that a name gives are not always drawn.

How the values were obtained:
Format in all cases: physicochemical
[1] = Chemical stability of tablet cores (5% drug loading), open dish, HPLC/Purity analysis; conditions: 5% active drug loading; for % -(2S,4R)-Epimer 6 weeks @ 50° C./75% RH: open dish
Description: Comparative chemical and physical stability data was generated for tablet cores comprising glasdegib dihydrochloride monohydrate (diHCl.H2O) and glasdegib maleate (Form 1) stored at 50° C./75% RH for 6 weeks. The tablet cores were prepared by dry granulation processing in a formulation composition comprising microcrystalline cellulose, dicalcium phosphate, sodium starch glycolate and magnesium stearate at an active drug loading level of 5%. The tablet cores were stored in open dish (no packaging) orientation in a 50° C./75% RH chamber and analyzed after 6 weeks of storage. The analytical testing included HPLC/Purity analysis and solid state NMR (for solid form).
The primary degradation product monitored is the epimeric 1-((2S,4R)-2-(1H-benzo[d]imidazol-2-yl)-1-methylpiperidin-4-yl)-3-(4-cyanophenyl)urea, which has the structure: […]

[2] = Accelerated 21-day stability study of tablets, shelf-life prediction from (2S,4R)-epimer formation; conditions: 60 cc HDPE bottle, 30 count tablets, 25° C./60% RH, epimer limit NMT 0.5%
Description: See Waterman et al., Pharmaceutical Research, 24(4): 780-790 (2007). The tablets were stored in open glass bottles and exposed to various temperature, humidities and durations.
The recommended packaging for the glasdegib dihydrochloride monohydrate tablets is HDPE/IS Bottle, with desiccant. The labeled storage condition of this product is 15-25° C.
The recommended packaging for the glasdegib maleate tablets is HDPE/IS Bottle and no desiccant is required. The labeled storage condition of this product is 15-25° C.

[3] = Comparative thermal stability by Differential Scanning Calorimetry (DSC); conditions: 25° C. to 250° C. at 10° C./min, dry nitrogen purge
Description: Comparative thermal stability data was generated for glasdegib dihydrochloride monohydrate (diHCl.H2O) and glasdegib maleate (Form 1). Differential Scanning calorimetry (DSC) measurements were performed with Discovery DSC (TA instruments) equipped with a refrigerated cooling accessory. All the experiments were performed in standard/Tzero aluminum pans. The cell constant was determined using indium and temperature calibration was performed using indium and tin as standards. All the measurements were done under continuous dry nitrogen purge (50 mL/min). Approximately 2-5 mg of solid sample was weighed into a standard/Tzero aluminum pan, sealed non-hermetically and heated from 25° C. to 250° C. at 10° C./min heating rate. The experimental data were analyzed using commercially available software (TA Universal Analysis 2000/Trios software, TA Instruments).

Row | % -(2S,4R)-Epimer 6 weeks @ 50° C./75% RH [1] [%] | shelf-life predicted, with desiccant ([2]; with desiccant) | shelf-life predicted, stored without desiccant [2] | Thermal Stability (stable up to) [3] | % -(2S,4R)-Epimer Initial Level ([1]; before storage) [%] | SMILES
1 | 2.75 | approximately 5 years | less than 2 years | Stable up to 50 °C | – | CN1CC[C@@H](NC(=O)Nc2ccc(C#N)cc2)C[C@@H]1c1nc2ccccc2[nH]1 [Glasdegib dihydrochloride monohydrate]
2 | 0.55 | – | more than 6 years | Stable up to 207 °C | 0.024 | CN1CC[C@@H](NC(=O)Nc2ccc(C#N)cc2)C[C@@H]1c1nc2ccccc2[nH]1.O=C(O)/C=C\C(=O)O [Glasdegib maleate (Form 1), 1-((2R,4R)-2-(1H-benzo[d]imidazol-2-yl)-1-methylpiperidin-4-yl)-3-(4-cyanophenyl)urea maleate]
